A word on the IC50: it is the concentration at which inhibition is half-maximal.

Each structure is given as a SMILES string. Where a SMILES comes first, the peptide text is derived from it. Bridges are numbered along the chain shown (N, C = ends). [ ]: non-standard residue; d: D form. Nle = CCCC[C@H](N)C(=O)O

The assay deals with T1, recombinant human VEGF165 (Homo sapiens, UniProt P15692).
T1 sequence (P15692 27-191 isoform P15692-4): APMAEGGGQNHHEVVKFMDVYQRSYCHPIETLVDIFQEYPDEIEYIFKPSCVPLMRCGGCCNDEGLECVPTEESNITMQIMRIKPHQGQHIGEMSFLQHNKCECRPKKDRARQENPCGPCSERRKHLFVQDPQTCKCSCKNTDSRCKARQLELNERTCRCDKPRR
The experiment in a line: VEGF peptide binding assay (competition ELISA, VEGF165 binding to coated VEGFR2/Fc). Summed up:
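VEGFR2/Fc was coated, and peptides (0.128–10,000 nM, N-acetyl, C-amide) were preincubated with 25 ng/ml human VEGF165 and added for 1 h at RT. Bound VEGF was detected with biotinylated anti-VEGF, streptavidin-HRP and TMB at OD450. IC50 came from sigmoid dose-response fits of OD450 versus concentration.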
On the technique in general: In an ELISA, binding on a coated surface is turned into a signal by an enzyme label.
With `CC[C@H](C)[C@@H]1NC(=O)[C@H](CC(=O)O)NC(=O)[C@@H](NC(=O)[C@H](CC(N)=O)NC(=O)[C@@H]2CCCN2C(=O)[C@H](CCC(=O)O)NC(=O)[C@@H](NC(C)=O)C(C)C)CSSC[C@@H](C(=O)N[C@@H](Cc2ccccc2)C(=O)N[C@@H](CCC(=O)O)C(=O)N[C@@H](CCCNC(=N)N)C(=O)N[C@@H](CC(C)C)C(=O)N[C@@H](Cc2ccc(O)cc2)C(=O)NCC(=O)NCC(N)=O)NC(=O)[C@H](CCC(=O)O)NC(=O)[C@H](Cc2c[nH]c3ccccc23)NC(=O)[C@H](C(C)C)NC(=O)[C@H](Cc2c[nH]c3ccccc23)NC(=O)[C@H](CCSC)NC(=O)[C@H](C(C)C)NC(=O)[C@H](Cc2c[nH]cn2)NC1=O` [Compound 52, VEPNCDIHVMWVWECFERLYGG] (Ac-VEPNCDIHVMWVWECFERLYGG-NH2; disulfide 5-15 (inferred)), the IC50 is 32.3 nM.
For `CC[C@H](C)[C@@H]1NC(=O)[C@H](CC(=O)O)NC(=O)[C@@H](NC(=O)[C@H](CC(N)=O)NC(=O)[C@@H]2CCCN2C(=O)[C@H](CCC(=O)O)NC(=O)[C@@H](NC(C)=O)C(C)C)CSSC[C@@H](C(=O)N[C@@H](Cc2ccccc2)C(=O)N[C@@H](CCC(=O)O)C(=O)N[C@@H](CCCNC(=N)N)C(=O)N[C@@H](CC(C)C)C(=O)N[C@@H](Cc2ccccc2)C(=O)N[C@@H](CCCCN)C(=O)N[C@@H](CCC(=O)O)C(=O)N[C@@H](C)C(N)=O)NC(=O)[C@H](CCC(=O)O)NC(=O)[C@H](Cc2c[nH]c3ccccc23)NC(=O)[C@H](C(C)C)NC(=O)[C@H](Cc2c[nH]c3ccccc23)NC(=O)[C@H](CCSC)NC(=O)[C@H](C(C)C)NC(=O)[C@H](Cc2c[nH]cn2)NC1=O` [Compound 53, VEPNCDIHVMWVWECFERLFKEA] (Ac-VEPNCDIHVMWVWECFERLFKEA-NH2; disulfide 5-15 (inferred)), the IC50 stood at 31.4 nM.
Consider `CCCC[C@H](NC(=O)[C@H](CC(C)C)NC(=O)[C@H](CCCNC(=N)N)NC(=O)[C@H](CCC(=O)O)NC(=O)[C@H](Cc1ccccc1)NC(=O)[C@@H]1CSSC[C@H](NC(=O)[C@H](CC(N)=O)NC(=O)[C@@H]2CCCN2C(=O)[C@H](CCC(=O)O)NC(=O)[C@@H](NC(C)=O)C(C)C)C(=O)N[C@@H](CC(=O)O)C(=O)N[C@@H]([C@@H](C)CC)C(=O)N[C@@H](Cc2c[nH]cn2)C(=O)N[C@@H](C(C)C)C(=O)N[C@@H](CCSC)C(=O)N[C@@H](Cc2c[nH]c3ccccc23)C(=O)N[C@@H](C(C)C)C(=O)N[C@@H](Cc2c[nH]c3ccccc23)C(=O)N[C@@H](CCC(=O)O)C(=O)N1)C(=O)N[C@@H](CCCCN)C(N)=O` [Compound 54, V-E-P-N-C-D-I-H-V-M-W-V-W-E-C-F-E-R-L-(Nle)-K] (Ac-VEPNCDIHVMWVWECFERL[Nle]K-NH2; disulfide 5-15 (inferred)), for which the IC50 worked out at 28.6 nM.
For the molecule `CC[C@H](C)[C@@H]1NC(=O)[C@H](CC(=O)O)NC(=O)[C@@H](NC(=O)[C@H](CC(N)=O)NC(=O)[C@@H]2CCCN2C(=O)[C@H](CCC(=O)O)NC(=O)[C@@H](NC(C)=O)C(C)C)CSSC[C@@H](C(=O)N[C@@H](Cc2ccccc2)C(=O)N[C@@H](CCC(=O)O)C(=O)N[C@@H](CCCNC(=N)N)C(=O)N[C@@H](CC(C)C)C(=O)N[C@@H](Cc2ccc(O)cc2)C(=O)NCC(=O)NCC(=O)N[C@@H](Cc2ccccc2)C(N)=O)NC(=O)[C@H](CCC(=O)O)NC(=O)[C@H](Cc2c[nH]c3ccccc23)NC(=O)[C@H](C(C)C)NC(=O)[C@H](Cc2c[nH]c3ccccc23)NC(=O)[C@H](CCSC)NC(=O)[C@H](C(C)C)NC(=O)[C@H](Cc2c[nH]cn2)NC1=O` [Compound 56, VEPNCDIHVMWVWECFERLYGGF] (Ac-VEPNCDIHVMWVWECFERLYGGF-NH2; disulfide 5-15 (inferred)), the IC50 was 26.2 nM.
Regarding `CC[C@H](C)[C@H](NC(=O)[C@H](CC(C)C)NC(=O)[C@H](CCCNC(=N)N)NC(=O)[C@H](CCC(=O)O)NC(=O)[C@H](Cc1ccccc1)NC(=O)[C@@H]1CSSC[C@H](NC(=O)[C@H](CC(N)=O)NC(=O)[C@@H]2CCCN2C(=O)[C@H](CCC(=O)O)NC(=O)[C@@H](NC(C)=O)C(C)C)C(=O)N[C@@H](CC(=O)O)C(=O)N[C@@H]([C@@H](C)CC)C(=O)N[C@@H](Cc2c[nH]cn2)C(=O)N[C@@H](C(C)C)C(=O)N[C@@H](CCSC)C(=O)N[C@@H](Cc2c[nH]c3ccccc23)C(=O)N[C@@H](C(C)C)C(=O)N[C@@H](Cc2c[nH]c3ccccc23)C(=O)N[C@@H](CCC(=O)O)C(=O)N1)C(=O)N[C@@H](CCCCN)C(N)=O` [Compound 57, VEPNCDIHVMWVWECFERLIK] (Ac-VEPNCDIHVMWVWECFERLIK-NH2; disulfide 5-15 (inferred)), the IC50 came to 25.4 nM.
On to `CC[C@H](C)[C@@H]1NC(=O)[C@H](CC(=O)O)NC(=O)[C@@H](NC(=O)[C@H](CC(N)=O)NC(=O)[C@@H]2CCCN2C(=O)[C@H](CCC(=O)O)NC(=O)[C@@H](NC(C)=O)C(C)C)CSSC[C@@H](C(=O)N[C@@H](Cc2ccccc2)C(=O)N[C@@H](CCC(=O)O)C(=O)N[C@@H](CCCNC(=N)N)C(=O)N[C@@H](CC(C)C)C(=O)N[C@@H](Cc2ccc(O)cc2)C(=O)N[C@@H](CCCCN)C(N)=O)NC(=O)[C@H](CCC(=O)O)NC(=O)[C@H](Cc2c[nH]c3ccccc23)NC(=O)[C@H](C(C)C)NC(=O)[C@H](Cc2c[nH]c3ccccc23)NC(=O)[C@H](CCSC)NC(=O)[C@H](C(C)C)NC(=O)[C@H](Cc2c[nH]cn2)NC1=O` [Compound 58, VEPNCDIHVMWVWECFERLYK] (Ac-VEPNCDIHVMWVWECFERLYK-NH2; disulfide 5-15 (inferred)), for which the IC50 amounted to 25.1 nM.
Regarding `CC[C@H](C)[C@@H]1NC(=O)[C@H](CC(=O)O)NC(=O)[C@@H](NC(=O)[C@H](CC(N)=O)NC(=O)[C@@H]2CCCN2C(=O)[C@H](CCC(=O)O)NC(=O)[C@@H](NC(C)=O)C(C)C)CSSC[C@@H](C(=O)N[C@@H](Cc2ccccc2)C(=O)N[C@@H](CCC(=O)O)C(=O)N[C@@H](CCCNC(=N)N)C(=O)N[C@@H](CC(C)C)C(=O)N[C@@H](CCSC)C(=O)NCC(=O)N[C@@H](CC(C)C)C(=O)N[C@H](C(N)=O)[C@@H](C)O)NC(=O)[C@H](CCC(=O)O)NC(=O)[C@H](Cc2c[nH]c3ccccc23)NC(=O)[C@H](C(C)C)NC(=O)[C@H](Cc2c[nH]c3ccccc23)NC(=O)[C@H](CCSC)NC(=O)[C@H](C(C)C)NC(=O)[C@H](Cc2c[nH]cn2)NC1=O` [Compound 59, VEPNCDIHVMWVWECFERLMGLT] (Ac-VEPNCDIHVMWVWECFERLMGLT-NH2; disulfide 5-15 (inferred)), the IC50 amounted to 25 nM.
For `CC[C@H](C)[C@@H]1NC(=O)[C@H](CC(=O)O)NC(=O)[C@@H](NC(=O)[C@H](CC(N)=O)NC(=O)[C@@H]2CCCN2C(=O)[C@H](CCC(=O)O)NC(=O)[C@@H](NC(C)=O)C(C)C)CSSC[C@@H](C(=O)N[C@@H](Cc2ccccc2)C(=O)N[C@@H](CCC(=O)O)C(=O)N[C@@H](CCCNC(=N)N)C(=O)N[C@@H](CC(C)C)C(=O)N[C@H](CC(C)C)C(=O)N[C@@H](CCCCNC(C)=O)C(N)=O)NC(=O)[C@H](CCC(=O)O)NC(=O)[C@H](Cc2c[nH]c3ccccc23)NC(=O)[C@H](C(C)C)NC(=O)[C@H](Cc2c[nH]c3ccccc23)NC(=O)[C@H](CCSC)NC(=O)[C@H](C(C)C)NC(=O)[C@H](Cc2c[nH]cn2)NC1=O` [Compound 60, V-E-P-N-C-D-I-H-V-M-W-V-W-E-C-F-E-R-L-(D-Leu)-(Kac)] (Ac-VEPNCDIHVMWVWECFERL[dL]K(Ac)-NH2; disulfide 5-15 (inferred)), the IC50 turned out to be 25 nM.
Take `CC[C@H](C)[C@@H]1NC(=O)[C@H](CC(=O)O)NC(=O)[C@@H](NC(=O)[C@H](CC(N)=O)NC(=O)[C@@H]2CCCN2C(=O)[C@H](CCC(=O)O)NC(=O)[C@@H](NC(C)=O)C(C)C)CSSC[C@@H](C(=O)N[C@@H](Cc2ccccc2)C(=O)N[C@@H](CCC(=O)O)C(=O)N[C@@H](CCCNC(=N)N)C(=O)N[C@@H](CC(C)C)C(=O)N[C@@H](Cc2ccc(O)cc2)C(=O)NCC(=O)NCC(=O)NCC(N)=O)NC(=O)[C@H](CCC(=O)O)NC(=O)[C@H](Cc2c[nH]c3ccccc23)NC(=O)[C@H](C(C)C)NC(=O)[C@H](Cc2c[nH]c3ccccc23)NC(=O)[C@H](CCSC)NC(=O)[C@H](C(C)C)NC(=O)[C@H](Cc2c[nH]cn2)NC1=O` [Compound 61, VEPNCDIHVMWVWECFERLYGGG] (Ac-VEPNCDIHVMWVWECFERLYGGG-NH2; disulfide 5-15 (inferred)): the IC50 came out at 23.6 nM.
In the case of `CC[C@H](C)[C@@H]1NC(=O)[C@H](CC(=O)O)NC(=O)[C@@H](NC(=O)[C@H](CC(N)=O)NC(=O)[C@@H]2CCCN2C(=O)[C@H](CCC(=O)O)NC(=O)[C@@H](NC(C)=O)C(C)C)CSSC[C@@H](C(=O)N[C@@H](Cc2ccccc2)C(=O)N[C@@H](CCC(=O)O)C(=O)N[C@@H](CCCNC(=N)N)C(=O)N[C@@H](CC(C)C)C(=O)N[C@@H](CCSC)C(=O)N[C@@H](CCCCN)C(N)=O)NC(=O)[C@H](CCC(=O)O)NC(=O)[C@H](Cc2c[nH]c3ccccc23)NC(=O)[C@H](C(C)C)NC(=O)[C@H](Cc2c[nH]c3ccccc23)NC(=O)[C@H](CCSC)NC(=O)[C@H](C(C)C)NC(=O)[C@H](Cc2c[nH]cn2)NC1=O` [Compound 62, VEPNCDIHVMWVWECFERLMK] (Ac-VEPNCDIHVMWVWECFERLMK-NH2; disulfide 5-15 (inferred)), the IC50 stood at 25 nM.
